Laboratory results: the kinase profiling compilation of Christmann-Franck et al. (2016)

Assays:
Assay in all cases: radiometric filter-binding kinase assay
[1] = system: AKT1 (human), P31749 [S473D]
AURKA (human) = AURKA (human) (UniProt O14965)
BRSK2 (human) = BRSK2 (human) (UniProt Q8IWQ3); settings: compound 10.0 µM
CHEK2 (human) = CHEK2 (human) (UniProt O96017)
CaMK1 (human) = CaMK1 (human) (UniProt Q14012)
DYRK1A (human) = DYRK1A (human) (UniProt Q13627)
DYRK2 (human) = DYRK2 (human) (UniProt Q92630)
Chain of DYRK2 (human) (Q92630 whole entry, looked up): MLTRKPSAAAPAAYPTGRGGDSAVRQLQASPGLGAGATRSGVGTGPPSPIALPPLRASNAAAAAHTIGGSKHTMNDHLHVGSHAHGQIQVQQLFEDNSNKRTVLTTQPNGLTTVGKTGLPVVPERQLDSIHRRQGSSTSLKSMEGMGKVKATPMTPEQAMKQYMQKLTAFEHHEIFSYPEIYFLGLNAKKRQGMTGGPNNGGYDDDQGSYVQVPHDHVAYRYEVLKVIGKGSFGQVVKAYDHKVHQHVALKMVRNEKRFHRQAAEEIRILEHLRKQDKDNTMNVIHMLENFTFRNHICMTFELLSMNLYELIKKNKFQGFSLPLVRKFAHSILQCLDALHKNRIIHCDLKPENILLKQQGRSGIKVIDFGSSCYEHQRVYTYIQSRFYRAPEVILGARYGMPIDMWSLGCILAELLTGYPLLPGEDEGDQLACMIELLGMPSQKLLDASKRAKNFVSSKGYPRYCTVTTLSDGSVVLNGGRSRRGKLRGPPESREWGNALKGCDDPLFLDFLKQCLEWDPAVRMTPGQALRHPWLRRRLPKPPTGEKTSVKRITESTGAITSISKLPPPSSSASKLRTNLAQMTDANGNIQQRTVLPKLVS

EPHB2 (human) = EPHB2 (human) (UniProt P29323)
EPHB3 (human) = EPHB3 (human) (UniProt P54753)
ERBB4 (human) = ERBB4 (human) (UniProt Q15303)
HIPK2 (human) = HIPK2 (human) (UniProt Q9H2X6)
Chain of HIPK2 (human) (Q9H2X6 whole entry, looked up): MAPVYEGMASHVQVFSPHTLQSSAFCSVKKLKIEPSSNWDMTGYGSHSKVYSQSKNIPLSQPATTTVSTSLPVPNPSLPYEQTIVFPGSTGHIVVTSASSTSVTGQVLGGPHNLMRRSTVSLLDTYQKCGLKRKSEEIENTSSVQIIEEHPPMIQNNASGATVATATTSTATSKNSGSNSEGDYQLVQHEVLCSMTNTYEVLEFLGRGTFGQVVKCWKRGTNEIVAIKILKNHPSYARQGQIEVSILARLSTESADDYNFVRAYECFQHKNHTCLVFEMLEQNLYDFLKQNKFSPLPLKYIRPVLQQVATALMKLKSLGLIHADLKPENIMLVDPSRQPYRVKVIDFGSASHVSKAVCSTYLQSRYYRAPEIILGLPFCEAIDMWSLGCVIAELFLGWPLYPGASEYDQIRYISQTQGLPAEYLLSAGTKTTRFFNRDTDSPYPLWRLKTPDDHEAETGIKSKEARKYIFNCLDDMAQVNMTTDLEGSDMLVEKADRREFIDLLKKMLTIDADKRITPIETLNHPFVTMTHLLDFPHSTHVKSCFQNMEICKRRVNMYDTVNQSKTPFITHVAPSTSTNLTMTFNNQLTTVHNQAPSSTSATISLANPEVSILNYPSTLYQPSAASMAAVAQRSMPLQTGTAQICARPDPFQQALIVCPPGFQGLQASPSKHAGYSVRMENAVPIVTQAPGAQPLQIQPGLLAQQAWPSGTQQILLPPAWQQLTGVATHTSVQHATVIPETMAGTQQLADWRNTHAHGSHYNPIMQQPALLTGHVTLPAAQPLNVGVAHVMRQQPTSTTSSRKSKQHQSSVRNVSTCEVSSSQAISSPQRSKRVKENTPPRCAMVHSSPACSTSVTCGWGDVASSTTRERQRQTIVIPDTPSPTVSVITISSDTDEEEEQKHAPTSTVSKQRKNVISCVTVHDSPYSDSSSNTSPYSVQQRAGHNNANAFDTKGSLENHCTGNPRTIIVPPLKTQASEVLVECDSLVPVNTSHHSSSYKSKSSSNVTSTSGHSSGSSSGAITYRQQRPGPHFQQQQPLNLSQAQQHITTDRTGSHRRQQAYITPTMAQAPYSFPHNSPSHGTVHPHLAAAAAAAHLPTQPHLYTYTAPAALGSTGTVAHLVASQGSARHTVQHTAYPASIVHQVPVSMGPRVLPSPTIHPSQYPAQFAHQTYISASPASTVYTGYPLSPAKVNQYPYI

IKBKE (human) = IKBKE (human) (UniProt Q14164)
Chain of IKBKE (human) (Q14164 whole entry, looked up): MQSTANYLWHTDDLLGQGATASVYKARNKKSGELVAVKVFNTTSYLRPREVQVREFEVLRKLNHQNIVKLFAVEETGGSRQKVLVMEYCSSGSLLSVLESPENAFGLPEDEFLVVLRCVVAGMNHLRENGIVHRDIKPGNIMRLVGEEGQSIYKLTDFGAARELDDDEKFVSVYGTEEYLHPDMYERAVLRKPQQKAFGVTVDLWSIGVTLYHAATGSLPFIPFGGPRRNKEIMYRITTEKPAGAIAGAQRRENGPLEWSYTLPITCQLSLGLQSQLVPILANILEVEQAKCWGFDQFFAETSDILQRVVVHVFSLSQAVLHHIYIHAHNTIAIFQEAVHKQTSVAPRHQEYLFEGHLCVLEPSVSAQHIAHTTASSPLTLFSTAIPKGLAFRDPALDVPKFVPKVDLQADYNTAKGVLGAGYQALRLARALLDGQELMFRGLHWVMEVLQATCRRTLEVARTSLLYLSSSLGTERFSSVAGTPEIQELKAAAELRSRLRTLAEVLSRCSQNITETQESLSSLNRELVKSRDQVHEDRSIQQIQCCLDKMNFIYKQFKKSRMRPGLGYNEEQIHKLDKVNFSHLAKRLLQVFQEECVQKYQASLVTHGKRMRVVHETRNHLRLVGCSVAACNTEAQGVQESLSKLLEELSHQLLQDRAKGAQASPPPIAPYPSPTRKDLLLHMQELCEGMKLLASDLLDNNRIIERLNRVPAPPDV

MAP2K6 (human) = MAP2K6 (human) (UniProt P52564)
MAP3K11 (human) = MAP3K11 (human) (UniProt Q16584)
MAPK1 (human) = MAPK1 (human) (UniProt P28482)
MAPK10 (human) = MAPK10 (human) (UniProt P53779)
MAPK13 (human) = MAPK13 (human) (UniProt O15264)
Chain of MAPK13 (human) (O15264 whole entry, looked up): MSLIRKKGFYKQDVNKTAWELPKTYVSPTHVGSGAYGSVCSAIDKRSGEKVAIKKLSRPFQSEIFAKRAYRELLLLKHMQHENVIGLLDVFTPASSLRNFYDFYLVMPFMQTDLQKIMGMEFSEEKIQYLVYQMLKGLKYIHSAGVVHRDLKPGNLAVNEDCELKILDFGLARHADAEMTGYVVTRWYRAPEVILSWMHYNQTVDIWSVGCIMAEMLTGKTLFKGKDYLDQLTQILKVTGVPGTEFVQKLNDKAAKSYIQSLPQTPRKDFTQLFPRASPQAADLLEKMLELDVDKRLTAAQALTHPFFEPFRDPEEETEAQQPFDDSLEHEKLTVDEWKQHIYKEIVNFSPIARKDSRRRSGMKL

MAPK3 (human) = MAPK3 (human) (UniProt P27361)
MAPK8 (human) = MAPK8 (human) (UniProt P45983)
Chain of MAPK8 (human) (P45983 whole entry, looked up): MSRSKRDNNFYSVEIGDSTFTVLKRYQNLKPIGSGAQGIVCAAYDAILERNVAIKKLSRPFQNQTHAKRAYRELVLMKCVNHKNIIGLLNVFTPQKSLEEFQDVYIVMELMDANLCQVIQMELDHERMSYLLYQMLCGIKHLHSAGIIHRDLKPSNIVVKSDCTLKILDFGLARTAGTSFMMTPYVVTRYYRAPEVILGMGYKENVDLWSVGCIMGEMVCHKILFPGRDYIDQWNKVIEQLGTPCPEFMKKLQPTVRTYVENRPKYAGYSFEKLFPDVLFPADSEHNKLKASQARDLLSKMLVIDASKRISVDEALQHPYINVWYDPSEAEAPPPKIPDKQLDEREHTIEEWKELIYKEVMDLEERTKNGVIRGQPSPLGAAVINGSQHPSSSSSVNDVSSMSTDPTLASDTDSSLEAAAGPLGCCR

MAPKAPK3 (human) = MAPKAPK3 (human) (UniProt Q16644)
MARK2 (human) = MARK2 (human) (UniProt Q7KZI7)
MKNK1 (human) = MKNK1 (human) (UniProt Q9BUB5)
Chain of MKNK1 (human) (Q9BUB5 whole entry, looked up): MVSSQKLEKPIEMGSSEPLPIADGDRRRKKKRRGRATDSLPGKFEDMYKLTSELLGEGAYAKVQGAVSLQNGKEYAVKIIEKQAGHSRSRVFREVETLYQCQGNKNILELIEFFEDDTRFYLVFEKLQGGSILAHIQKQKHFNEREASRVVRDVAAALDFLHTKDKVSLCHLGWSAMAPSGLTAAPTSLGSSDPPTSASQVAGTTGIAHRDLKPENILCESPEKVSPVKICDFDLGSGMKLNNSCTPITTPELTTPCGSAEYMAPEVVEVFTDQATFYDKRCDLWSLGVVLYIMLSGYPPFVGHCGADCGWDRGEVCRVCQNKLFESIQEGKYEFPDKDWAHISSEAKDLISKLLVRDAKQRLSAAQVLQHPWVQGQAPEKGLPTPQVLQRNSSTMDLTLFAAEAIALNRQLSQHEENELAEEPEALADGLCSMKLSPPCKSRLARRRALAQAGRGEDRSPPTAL

MST4 (human) = MST4 (human) (UniProt Q9P289)
Chain of MST4 (human) (Q9P289 whole entry, looked up): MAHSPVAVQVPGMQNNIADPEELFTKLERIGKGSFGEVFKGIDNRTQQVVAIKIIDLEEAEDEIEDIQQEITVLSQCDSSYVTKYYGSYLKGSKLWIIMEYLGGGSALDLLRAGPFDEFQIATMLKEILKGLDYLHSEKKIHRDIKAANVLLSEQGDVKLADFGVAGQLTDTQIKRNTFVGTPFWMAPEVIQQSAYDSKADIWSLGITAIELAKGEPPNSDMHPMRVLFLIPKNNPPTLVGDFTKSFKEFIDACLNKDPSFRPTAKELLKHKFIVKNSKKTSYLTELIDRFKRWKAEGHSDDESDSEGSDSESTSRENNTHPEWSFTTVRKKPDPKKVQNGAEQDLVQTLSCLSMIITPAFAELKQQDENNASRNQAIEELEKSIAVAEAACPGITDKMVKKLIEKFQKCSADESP

NEK2 (human) = NEK2 (human) (UniProt P51955)
Chain of NEK2 (human) (P51955 whole entry, looked up): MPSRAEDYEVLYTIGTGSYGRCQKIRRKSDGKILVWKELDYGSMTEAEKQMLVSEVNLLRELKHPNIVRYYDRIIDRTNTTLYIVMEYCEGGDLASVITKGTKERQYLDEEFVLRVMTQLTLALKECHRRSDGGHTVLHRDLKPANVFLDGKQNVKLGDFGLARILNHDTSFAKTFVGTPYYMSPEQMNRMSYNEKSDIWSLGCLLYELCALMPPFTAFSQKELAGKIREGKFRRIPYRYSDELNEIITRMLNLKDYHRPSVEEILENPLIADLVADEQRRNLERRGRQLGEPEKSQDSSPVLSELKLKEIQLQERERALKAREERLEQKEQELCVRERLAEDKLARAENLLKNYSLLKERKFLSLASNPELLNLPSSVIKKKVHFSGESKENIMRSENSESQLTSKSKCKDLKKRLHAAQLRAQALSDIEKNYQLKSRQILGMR

NUAK1 (human) = NUAK1 (human) (UniProt O60285)
PAK4 (human) = PAK4 (human) (UniProt O96013)
PAK7 (human) = PAK7 (human) (UniProt Q9P286)
PLK1 (human) = PLK1 (human) (UniProt P53350)
PRKAA1 or PRKAA2 (rat) = settings: accession and sequence are those of the human protein
PRKACA (human) = PRKACA (human) (UniProt P17612)
PRKCA (human) = PRKCA (human) (UniProt P17252)
RPS6KA1 KD1 KD2 (human) = RPS6KA1 KD1 KD2 (human) (UniProt Q15418)
[2] = system: SGK1 (human), O00141 [S422D]
SYK (human) = SYK (human) (UniProt P43405)
MAPK12 (human) = MAPK12 (human) (UniProt P53778)

Chain of CaMK1 (human) (Q14012 whole entry, looked up): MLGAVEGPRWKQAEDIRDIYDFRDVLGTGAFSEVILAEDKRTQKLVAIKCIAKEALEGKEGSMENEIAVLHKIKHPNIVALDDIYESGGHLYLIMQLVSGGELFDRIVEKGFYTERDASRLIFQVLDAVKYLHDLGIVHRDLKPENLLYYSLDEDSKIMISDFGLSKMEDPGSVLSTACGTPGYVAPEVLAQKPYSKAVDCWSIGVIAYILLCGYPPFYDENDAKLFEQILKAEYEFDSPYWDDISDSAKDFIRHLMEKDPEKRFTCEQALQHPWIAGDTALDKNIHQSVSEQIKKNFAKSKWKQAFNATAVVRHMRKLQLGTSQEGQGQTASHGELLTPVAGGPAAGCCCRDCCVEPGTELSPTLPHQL

CC(C)C[C@H](NC(=O)CNC(=O)c1cc(Cl)ccc1Cl)B1OC(=O)CC(CC(=O)O)(C(=O)O)O1 (stereo partly specified)
residual activity ([1]; compound 10.0 µM): 83% | residual activity (AURKA (human); compound 10.0 µM): 105% | residual activity (BRSK2 (human)): 90% | residual activity (CHEK2 (human); compound 10.0 µM): 89% | residual activity (CaMK1 (human); compound 10.0 µM): 80% | residual activity (DYRK1A (human); compound 10.0 µM): 88% | residual activity (DYRK2 (human); compound 10.0 µM): 94% | residual activity (EPHB2 (human); compound 10.0 µM): 95% | residual activity (EPHB3 (human); compound 10.0 µM): 62% | residual activity (ERBB4 (human); compound 10.0 µM): 72% | residual activity (HIPK2 (human); compound 10.0 µM): 88% | residual activity (IKBKE (human); compound 10.0 µM): 91% | residual activity (MAP2K6 (human); compound 10.0 µM): 92% | residual activity (MAP3K11 (human); compound 10.0 µM): 99% | residual activity (MAPK1 (human); compound 10.0 µM): 86% | residual activity (MAPK10 (human); compound 10.0 µM): 91% | residual activity (MAPK13 (human); compound 10.0 µM): 98% | residual activity (MAPK3 (human); compound 10.0 µM): 106% | residual activity (MAPK8 (human); compound 10.0 µM): 85% | residual activity (MAPKAPK3 (human); compound 10.0 µM): 102% | residual activity (MARK2 (human); compound 10.0 µM): 81% | residual activity (MKNK1 (human); compound 10.0 µM): 79% | residual activity (MST4 (human); compound 10.0 µM): 122% | residual activity (NEK2 (human); compound 10.0 µM): 94% | residual activity (NUAK1 (human); compound 10.0 µM): 78% | residual activity (PAK4 (human); compound 10.0 µM): 77% | residual activity (PAK7 (human); compound 10.0 µM): 94% | residual activity (PLK1 (human); compound 10.0 µM): 97% | residual activity (PRKAA1 or PRKAA2 (rat); compound 10.0 µM): 82% | residual activity (PRKACA (human); compound 10.0 µM): 95% | residual activity (PRKCA (human); compound 10.0 µM): 113% | residual activity (RPS6KA1 KD1 KD2 (human); compound 10.0 µM): 80% | residual activity ([2]; compound 10.0 µM): 78% | residual activity (SYK (human); compound 10.0 µM): 66%

CCCC(CCC)C(=O)O
residual activity ([1]; compound 1.0 µM): 99% | residual activity ([1]; compound 10.0 µM): 99% | residual activity ([1]; compound 50.0 µM): 102% | residual activity (AURKA (human); compound 10.0 µM): 107% | residual activity (AURKA (human); compound 50.0 µM): 111% | residual activity (CHEK2 (human); compound 1.0 µM): 83% | residual activity (CHEK2 (human); compound 10.0 µM): 97% | residual activity (CHEK2 (human); compound 50.0 µM): 95% | residual activity (CaMK1 (human); compound 1.0 µM): 89% | residual activity (CaMK1 (human); compound 10.0 µM): 107% | residual activity (CaMK1 (human); compound 50.0 µM): 101% | residual activity (DYRK1A (human); compound 1.0 µM): 98% | residual activity (DYRK1A (human); compound 50.0 µM): 89% | residual activity (DYRK2 (human); compound 10.0 µM): 102% | residual activity (DYRK2 (human); compound 50.0 µM): 101% | residual activity (EPHB2 (human); compound 10.0 µM): 106% | residual activity (EPHB2 (human); compound 50.0 µM): 126% | residual activity (EPHB3 (human); compound 50.0 µM): 96% | residual activity (ERBB4 (human); compound 10.0 µM): 80% | residual activity (ERBB4 (human); compound 50.0 µM): 76% | residual activity (HIPK2 (human); compound 10.0 µM): 86% | residual activity (HIPK2 (human); compound 50.0 µM): 92% | residual activity (IKBKE (human); compound 10.0 µM): 101% | residual activity (IKBKE (human); compound 50.0 µM): 81% | residual activity (MAP2K6 (human); compound 10.0 µM): 95% | residual activity (MAP2K6 (human); compound 50.0 µM): 81% | residual activity (MAP3K11 (human); compound 10.0 µM): 104% | residual activity (MAP3K11 (human); compound 50.0 µM): 96% | residual activity (MAPK1 (human); compound 1.0 µM): 98% | residual activity (MAPK1 (human); compound 10.0 µM): 77% | residual activity (MAPK1 (human); compound 50.0 µM): 80% | residual activity (MAPK10 (human); compound 1.0 µM): 88% | residual activity (MAPK10 (human); compound 10.0 µM): 85% | residual activity (MAPK10 (human); compound 50.0 µM): 89% | residual activity (MAPK12 (human); compound 1.0 µM): 93% | residual activity (MAPK12 (human); compound 10.0 µM): 95% | residual activity (MAPK12 (human); compound 50.0 µM): 89% | residual activity (MAPK13 (human); compound 1.0 µM): 106% | residual activity (MAPK13 (human); compound 10.0 µM): 95% | residual activity (MAPK13 (human); compound 50.0 µM): 92% | residual activity (MAPK3 (human); compound 10.0 µM): 88% | residual activity (MAPK3 (human); compound 50.0 µM): 101% | residual activity (MAPK8 (human); compound 1.0 µM): 86% | residual activity (MAPK8 (human); compound 10.0 µM): 95% | residual activity (MAPK8 (human); compound 50.0 µM): 92% | residual activity (MAPKAPK3 (human); compound 1.0 µM): 90% | residual activity (MAPKAPK3 (human); compound 10.0 µM): 93% | residual activity (MAPKAPK3 (human); compound 50.0 µM): 97% | residual activity (MARK2 (human); compound 10.0 µM): 104% | residual activity (MARK2 (human); compound 50.0 µM): 90% | residual activity (MKNK1 (human); compound 1.0 µM): 86% | residual activity (MKNK1 (human); compound 10.0 µM): 112% | residual activity (MST4 (human); compound 10.0 µM): 102% | residual activity (MST4 (human); compound 50.0 µM): 100% | residual activity (NEK2 (human); compound 1.0 µM): 79% | residual activity (NEK2 (human); compound 10.0 µM): 93% | residual activity (NEK2 (human); compound 50.0 µM): 91% | residual activity (NUAK1 (human); compound 10.0 µM): 88% | residual activity (NUAK1 (human); compound 50.0 µM): 86% | residual activity (PAK4 (human); compound 10.0 µM): 86% | residual activity (PAK4 (human); compound 50.0 µM): 90% | residual activity (PAK7 (human); compound 10.0 µM): 101% | residual activity (PAK7 (human); compound 50.0 µM): 90% | residual activity (PLK1 (human); compound 1.0 µM): 97% | residual activity (PLK1 (human); compound 10.0 µM): 95% | residual activity (PLK1 (human); compound 50.0 µM): 93% | residual activity (PRKAA1 or PRKAA2 (rat); compound 1.0 µM): 98% | residual activity (PRKAA1 or PRKAA2 (rat); compound 10.0 µM): 94% | residual activity (PRKAA1 or PRKAA2 (rat); compound 50.0 µM): 91% | residual activity (PRKACA (human); compound 1.0 µM): 82% | residual activity (PRKACA (human); compound 10.0 µM): 91% | residual activity (PRKACA (human); compound 50.0 µM): 93% | residual activity (PRKCA (human); compound 1.0 µM): 88% | residual activity (PRKCA (human); compound 10.0 µM): 91% | residual activity (PRKCA (human); compound 50.0 µM): 95% | residual activity (RPS6KA1 KD1 KD2 (human); compound 1.0 µM): 99% | residual activity (RPS6KA1 KD1 KD2 (human); compound 10.0 µM): 100% | residual activity (RPS6KA1 KD1 KD2 (human); compound 50.0 µM): 96% | residual activity ([2]; compound 1.0 µM): 89% | residual activity ([2]; compound 10.0 µM): 98% | residual activity (SYK (human); compound 10.0 µM): 100% | residual activity (SYK (human); compound 50.0 µM): 98%
